Usually inhibition in vivo stands for the percentage by which the read-out fell short of the control. A word on the ED50: it is the dose at which the effect has come halfway, by size or by number of responders.

Two molecules from ChEMBL document CHEMBL1142605, “Stemoninines from the roots of Stemona tuberosa” (2006) can be followed below.

The test system of experiment [1] is Cavia porcellus. Nature of the experiment: Antitussive activity in Dunkin-Hartley guinea pig assessed as inhibition of citric acid-induced cough at 100 mg/kg, ip administered 30 mins before citric acid challenge. In kind it is functional. To be noted: route intraperitoneal.
Experiment [2] deals with Cavia porcellus. Nature of the experiment: Antitussive activity in ip dosed Dunkin-Hartley guinea pig assessed as inhibition of citric acid-induced cough administered 30 mins before citric acid challenge. The experiment is classed as functional.

Turning to `CC[C@H]1[C@@H]2c3ccc([C@@H]4C[C@H](C)C(=O)O4)n3CCC[C@H]2O[C@]12C=C(C)C(=O)O2` [BISDEHYDROSTEMONININE], the inhibition in vivo at 100 mg/kg in experiment [1] was determined as 90%. For the same molecule, in experiment [2], the Activity result is “Dose-dependent effect” and the ED50 came to 188 µmol/kg.

Turning to `CC[C@@H]1[C@H]2CCCCN3[C@H]2[C@@H](C[C@H]3[C@@H]2C[C@H](C)C(=O)O2)[C@H]2[C@@H]1OC(=O)[C@H]2C` [NEOTUBEROSTEMONINE], the ED50 in experiment [2] is 66 µmol/kg.
